Biological target: T1, CXCR7 (Homo sapiens, UniProt P25106)
T1 construct: expressed in transfected cells; host or cells: CHO cells (CHO-CXCR7), transgenes maintained with Hygromycin B and G418
Assay: CXCR7 β-arrestin recruitment assay in CHO-CXCR7 cells (ProLink/EA β-galactosidase complementation), induced by human SDF-1a
Assay type: cell-based
Conditions: assay buffer, SDF-1a at EC50 concentration
Method: CXCR7 is fused in frame with a small enzyme donor fragment ProLink and co-expressed in CHO cells stably expressing a fusion protein of β-arrestin and the larger, N-terminal deletion mutant of β-galactosidase (called enzyme acceptor or EA). Activation of the CXCR7 stimulates binding of β-arrestin to the ProLink-tagged CXCR7 and forces complementation of the two enzyme fragments, resulting in the formation of an active β-galactosidase enzyme. The β-galactosidase enzyme activity is measured with a substrate that generates fluorescence.
CHO-CXCR7 cells (0.22×10^6/mL) were cultured in growth medium (Ham's F-12 medium with 10% fetal bovine serum (FBS)), Hygromycin B (200 ug/mL) and G418 (250 ug/mL) were used to maintain the transgenes. The day before the assay, the cells were detached from culture dishes with 0.25% trypsin-EDTA (Corning, Catalog No. 25-053-CI), plated into 96 well plate (2.2×10^5 cells/mL, 100 μL/well) and incubated overnight at 37° C. with 5% CO2. On the day of the assay, cell culture medium was removed and 100 uL of assay buffer (PBS or FBS) was added to each well. 1 μL of compound that were serially diluted in DMSO was added to each well. 5 μL of human SDF-la (Pepro Tech, Catalog No. 300-28A, at EC50 concentration pre-determined on the same day) was then added and mixed to induce CXCR7-mediated β-arrestin recruitment. The plates were incubated for 1.5 hours at 37° C. The assay buffer was removed, 100 μL substrate solution was added and the reaction was carried out at 37° C. for 30 minutes. The substrate solution was prepared by mixing 100 mL Phosphate Buffer (1M, Sigma, Catalog No. P3619-1GA), 100 mL 10% Triton X 100 (Sigma, Catalog No. T8787.), 5 mL MgCl2 (1M, Sigma, Catalog No. M1028), 1.5 mL, β-mercaptoethanol (Gibco, Catalog No. 21985-023.). 3-carboxyumbelliferyl β-D-galactopyranoside (ThermoFisher Scientific, Catalo No. F2905) was added at 0.4 mM right before use. The reaction was then stopped by adding 50 μL of Stop Solution (2.1% w/v Na2CO3) to each well. Fluorescence intensity was measured with a FlexStation 3 microplate reader (Molecular Devices) with the following setting—excitation: 360 nm, emission: 465 nm, manual Gain: 55. IC50 values were calculated with GraphPad Prism using 3 parameter nonlinear regression.

T1 sequence (P25106 whole entry): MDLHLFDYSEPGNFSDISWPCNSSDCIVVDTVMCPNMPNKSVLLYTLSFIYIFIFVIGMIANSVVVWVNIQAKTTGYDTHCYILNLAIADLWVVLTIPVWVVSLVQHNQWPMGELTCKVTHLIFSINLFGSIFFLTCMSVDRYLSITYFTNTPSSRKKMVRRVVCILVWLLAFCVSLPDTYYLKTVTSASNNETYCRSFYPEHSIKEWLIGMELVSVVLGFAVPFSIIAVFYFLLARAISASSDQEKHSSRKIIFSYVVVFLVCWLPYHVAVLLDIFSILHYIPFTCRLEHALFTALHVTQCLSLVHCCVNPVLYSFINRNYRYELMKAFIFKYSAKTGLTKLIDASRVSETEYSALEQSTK

| SMILES | IC50 [nM] |
| --- | --- |
| Cc1ccnc(C(C)(C)NC(=O)CC2(NC(=O)c3nnc(-c4ccc(F)cc4F)s3)CN([C@H]3CC[C@](C)(O)CC3)C2)n1 [Example 1.041] | 5 to 100 |
| CC(C)(NC(=O)CC1(NC(=O)c2cc(-c3ccc(F)cc3F)on2)CN([C@H]2CC[C@](C)(C(=O)O)CC2)C1)c1ccccn1 [Example 1.108] | 100 to 1000 |
| CC(C)(NC(=O)CC1(NC(=O)c2cc(-c3ccc(F)cc3F)on2)CN([C@H]2CC[C@](C)(O)CC2)C1)c1ccncc1 [Example 1.182] | < 5 |
| COc1cc(Cl)cc(C(C)(C)NC(=O)CC2(NC(=O)c3cc(-c4ccc(F)cc4F)on3)CN([C@H]3CC[C@](C)(O)CC3)C2)c1 [Example 1.165] | < 5 |
| Cc1cc(C(C)(C)NC(=O)CC2(NC(=O)c3cc(-c4ccc(F)cc4F)on3)CN(C3CCC4(CC3)COC4)C2)ccn1 [Example 1.159] | 5 to 100 |
| Cc1ccc(F)c(C(C)(C)NC(=O)CC2(NC(=O)c3nnc(-c4ccc(F)cc4F)s3)CN([C@H]3CC[C@](C)(O)CC3)C2)n1 [Example 1.005] | < 5 |
| Cc1cc(C(C)(C)NC(=O)CC2(NC(=O)c3cc(-c4ccc(F)cc4F)on3)CN(CC3COC3)C2)ccn1 [Example 1.136] | 100 to 1000 |
| CC(C)(NC(=O)CC1(NC(=O)c2cc(-c3ccc(F)cc3F)on2)CN([C@H]2CC[C@](C)(O)CC2)C1)c1cccc2[nH]ncc12 [Example 1.087] | 1000 to 20000 |
| CC(C)(NC(=O)CC1(NC(=O)c2nnc(-c3ccc(F)cc3F)s2)CN(C2CCCCC2)C1)c1cccc(Cl)c1 [Example 1.073] | < 5 |
| Cn1nc(-c2ccc(F)cc2F)cc1C(=O)NC1(CC(=O)NC(C)(C)c2cccc(Cl)c2)CN([C@H]2CC[C@@](C)(O)CC2)C1 [Example 1.058] | 1000 to 20000 |
| CC(C)(NC(=O)CC1(NC(=O)c2cnc(-c3ccc(F)cc3F)s2)CN([C@H]2CC[C@](C)(O)CC2)C1)c1cccc(Cl)c1 [Example 1.069] | 5 to 100 |
| CC(C)(NC(=O)CC1(NC(=O)c2csc(-c3ccc(F)cc3F)n2)CN([C@H]2CC[C@@](C)(O)CC2)C1)c1cccc(Cl)c1 [Example 1.050] | 1000 to 20000 |
| COc1cccc(C(C)(C)NC(=O)CC2(NC(=O)c3cc(-c4ccc(F)cc4F)on3)CN([C@H]3CC[C@@](C)(O)CC3)C2)c1F [Example 1.195] | 5 to 100 |
| CC(C)CN1CC(CC(=O)NC(C)(C)c2ccccn2)(NC(=O)c2cc(-c3ccc(F)cc3F)on2)C1 [Example 1.129] | 5 to 100 |
| CC(C)(NC(=O)CC1(NC(=O)c2nnc(-c3ccc(F)cc3F)s2)CN([C@H]2CC[C@](C)(O)CC2)C1)c1cccc(C#N)c1 [Example 1.025] | 5 to 100 |
| CC(C)(NC(=O)CC1(NC(=O)c2cc(-c3ccc(F)cc3F)on2)CN([C@H]2CC[C@@](C)(O)CC2)C1)c1ccncc1 [Example 1.180] | < 5 |
| CC1(CN2CC(CC(=O)NC(C)(C)c3cccc(C(F)(F)F)n3)(NC(=O)c3cc(-c4ccc(F)cc4F)on3)C2)COC1 [Example 1.130] | 1000 to 20000 |
| Cc1cc(C)nc(C(C)(C)NC(=O)CC2(NC(=O)c3cc(-c4ccc(F)cc4F)n[nH]3)CN([C@H]3CC[C@@](C)(O)CC3)C2)n1 [Example 1.052] | 1000 to 20000 |
| Cc1ccnc(C(C)(C)NC(=O)CC2(NC(=O)c3cc(-c4ccc(F)cc4F)on3)CN([C@H]3CC[C@@](C)(O)CC3)C2)c1 [Example 1.163] | < 5 |
| CC(C)(NC(=O)CC1(NC(=O)c2cc(-c3ccc(F)cc3F)on2)CN([C@H]2CC[C@](C)(O)CC2)C1)c1cccc(C(F)(F)F)n1 [Example 1.156] | < 5 |
| Cc1ccc(C)c(C(C)(C)NC(=O)CC2(NC(=O)c3nnc(-c4ccc(F)cc4F)s3)CN([C@H]3CC[C@](C)(O)CC3)C2)n1 [Example 1.011] | < 5 |
| C[C@]1(O)CC[C@H](N2CC(CC(=O)NCc3cccc4[nH]ccc34)(NC(=O)c3cc(-c4ccc(F)cc4F)on3)C2)CC1 [Example 1.100] | < 5 |
| Cn1ccc2c(C(C)(C)NC(=O)CC3(NC(=O)c4cc(-c5ccc(F)cc5F)on4)CN([C@H]4CC[C@](C)(O)CC4)C3)cccc21 [Example 1.126] | 5 to 100 |
| CC1(CN2CC(CC(=O)NC(C)(C)c3ccccn3)(NC(=O)c3cc(-c4ccc(F)cc4F)on3)C2)CCC1 [Example 1.002] | < 5 |
| CC(C)(NC(=O)CC1(NC(=O)c2cc(-c3ccc(F)cc3F)on2)CN([C@H]2CC[C@@](C)(O)CC2)C1)c1cccc2cc[nH]c12 [Example 1.115] | < 5 |
| CC(C)(NC(=O)CC1(NC(=O)c2cnn(-c3ccc(F)cc3F)c2)CN([C@H]2CC[C@](C)(O)CC2)C1)c1cccc(Cl)c1 [Example 1.049] | 1000 to 20000 |
| COc1ccc(F)cc1C(C)(C)NC(=O)CC1(NC(=O)c2nnc(-c3ccc(F)cc3F)s2)CN([C@H]2CC[C@](C)(O)CC2)C1 [Example 1.017] | 5 to 100 |

Continued, values first:

| IC50 [nM] | SMILES |
| --- | --- |
| < 5 | CC(C)(NC(=O)CC1(NC(=O)c2cc(-c3ccc(F)cc3F)on2)CN([C@H]2CC[C@@](C)(O)CC2)C1)c1cccc(F)c1 [Example 1.290] |
| 5 to 100 | COc1cc(C)cc(C(C)(C)NC(=O)CC2(NC(=O)c3nnc(-c4ccc(F)cc4F)s3)CN([C@H]3CC[C@](C)(O)CC3)C2)n1 [Example 1.346] |
| 100 to 1000 | CC(C)(NC(=O)CC1(NC(=O)c2cc(-c3ccc(F)cc3F)on2)CN([C@H]2CC[C@@](C)(O)CC2)C1)c1ccc(F)cn1 [Example 1.207] |
| 5 to 100 | CC(C)(NC(=O)CC1(NC(=O)c2cc(-c3ccc(F)cc3F)on2)CN(C2CCCCC2)C1)c1nccs1 [Example 1.276] |
| 5 to 100 | O=C(CC1(NC(=O)c2cc(-c3ccc(F)cc3F)on2)CN(C2CCCC2)C1)NC1(c2ncccn2)CC1 [Example 1.331] |
| 5 to 100 | COc1ccc(F)c(C(C)(C)NC(=O)CC2(NC(=O)c3cc(-c4ccc(F)cc4F)on3)CN([C@H]3CC[C@@](C)(O)CC3)C2)c1 [Example 1.205] |
| 1000 to 20000 | Cc1cc(C)nc(C(C)(C)NC(=O)CC2(NC(=O)c3noc(-c4ccc(F)cc4F)c3C)CN(C3CCCCC3)C2)n1 [Example 1.341] |
| 5 to 100 | CC(C)(NC(=O)CC1(NC(=O)c2cc(-c3ccc(F)cc3F)on2)CN(C2CCCCC2)C1)c1ncccn1 [Example 1.270] |
| 100 to 1000 | Cc1ccc(C(C)(C)NC(=O)CC2(NC(=O)c3cc(-c4ccc(F)cc4F)on3)CN([C@H]3CC[C@@](C)(O)CC3)C2)cc1 [Example 1.242] |
| 5 to 100 | CC(C)(NC(=O)CC1(NC(=O)c2nnc(-c3ccc(F)cc3F)s2)CN([C@H]2CC[C@](C)(O)CC2)C1)c1cc(Cl)ccc1F [Example 1.336] |
| < 5 | COc1ccc(F)cc1C(C)(C)NC(=O)CC1(NC(=O)c2cc(-c3ccc(F)cc3F)on2)CN([C@H]2CC[C@](C)(O)CC2)C1 [Example 1.266] |
| < 5 | CC(C)(NC(=O)CC1(NC(=O)c2cc(-c3ccc(F)cc3F)on2)CN(C2CCCCC2)C1)c1ccccn1 [Example 1.326] |
| < 5 | CC(C)(NC(=O)CC1(NC(=O)c2cc(-c3ccc(F)cc3F)on2)CN([C@H]2CC[C@](C)(O)CC2)C1)c1cccc(Cl)c1 [Example 1.221] |
| < 5 | CC(C)(NC(=O)CC1(NC(=O)c2cc(-c3ccc(F)cc3F)on2)CN([C@H]2CC[C@@](C)(O)CC2)C1)c1ccccc1F [Example 1.227] |
| < 5 | Cc1cc(Cl)cc(C(C)(C)NC(=O)CC2(NC(=O)c3cc(-c4ccc(F)cc4F)on3)CN(C3CCOC(C)(C)C3)C2)n1 (stereo not shown) [Example 1.358] |
| 5 to 100 | Cc1ccnc(C(C)(C)NC(=O)CC2(NC(=O)c3nnc(-c4ccc(F)cc4F)s3)CN([C@H]3CC[C@](C)(O)CC3)C2)c1 [Example 1.338] |
| 1000 to 20000 | Cc1c(C(=O)NC2(CC(=O)NC(C)(C)c3cccc(Cl)c3)CN(C3CCCCC3)C2)noc1-c1ccc(F)cc1F [Example 1.340] |
| 5 to 100 | Cc1cc(Cl)cc(C(C)(C)NC(=O)CC2(NC(=O)c3nnc(-c4ccc(F)cc4F)s3)CN([C@H]3CC[C@](C)(O)CC3)C2)c1 [Example 1.348] |
| < 5 | CC(C)(NC(=O)CC1(NC(=O)c2cc(-c3ccc(F)cc3F)on2)CN([C@H]2CC[C@@](C)(O)CC2)C1)c1ncccn1 [Example 1.232] |
| < 5 | CC(C)(NC(=O)CC1(NC(=O)c2cc(-c3ccc(F)cc3F)on2)CN([C@H]2CC[C@](C)(O)CC2)C1)c1ncccn1 [Example 1.233] |
| 1000 to 20000 | CC(C)(NC(=O)CC1(NC(=O)c2cc(-c3ccc(F)cc3F)on2)CN(c2ncccn2)C1)c1ccccn1 [Example 1.315] |
| < 5 | COc1ccnc(C(C)(C)NC(=O)CC2(NC(=O)c3cc(-c4ccc(F)cc4F)on3)CN([C@H]3CC[C@](C)(O)CC3)C2)c1 [Example 1.201] |
